Results on one molecule are retold here after US20210386709A1, “COMPOSITIONS AND METHODS FOR SUPPRESSING MSUT2” (United States Government As Represented By The Department …, priority 2020, published 2021).

Each structure is given as a SMILES string.

One data set deals with T1, MSUT2 ZF (Homo sapiens, UniProt Q6PJT7).
T1 construct: Targeted construct consisted of the c-terminal end (dark blue and amino acids 601-736) of MSUT2; made in house; host or cells: E. coli BL21 (DE3)
T1 sequence (Q6PJT7 601-736): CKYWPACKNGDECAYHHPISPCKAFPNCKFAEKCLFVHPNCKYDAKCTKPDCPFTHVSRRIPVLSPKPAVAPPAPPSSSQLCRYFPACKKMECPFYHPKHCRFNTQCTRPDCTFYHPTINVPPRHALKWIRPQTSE
Briefly: Fluorescence polarization assay of FAM-poly(A) RNA:MSUT2 ZF binding. Particulars: by FP assay; read-out: Ki for MSUT2 by FP assay. The procedure: Fluorescence Polarization Assay. […] 2 μL of compound was transferred for a final concentration of 10 μM. […] Fluorescence polarization was calculated by first subtracting background from a buffer-only control well and then using the equation
Results and Discussion. A high-throughput fluorescence polarization assay for inhibition of poly(A):MSUT2 RNA interaction. […] In order to screen potential inhibitors of MSUT2 RBP and RNA by FP, fluorescent FAM (fluorescein amidite)-labeled poly(A)15 RNA (FAM-RNA) and recombinant MSUT2 ZF (zinc finger) protein expressing constructs were generated (FIG. 7a). […] Inhibition of the interaction results in unbound FAM-RNA tumbling at a relatively rapid rate and emitting non-polarized light (FIG. 7b).
To determine the concentrations of both MSUT2 ZF protein and FAM-RNA probe useful in the methods described herein, a two dimensional titration of protein and RNA concentrations in 96-well format was performed. […] Next, the binding constant between MSUT2 ZF and FAM-RNA was determined by holding FAM-RNA constant at 10 nM while increasing MSUT2 ZF concentration.
Identification and validation of MSUT2 inhibitory compounds from NIHCC library. […] IC50 of each of the previous 8 compounds was determined for PABPN1 using fluorescence polarization (FIG. 11), and a specificity ratio determined (Table 3). An Alpha Screen (AS) assay was developed as an orthogonal screen. Briefly, in this screen, biotinylated RNA binds streptavidin-coated donor beads, while GST-MSUT2 ZF binds glutathione-coated acceptor beads. When donor beads and acceptor beads are brought within close proximity of one another, laser excitation leads to fluorophore emission of the acceptor bead via excited singlet oxygen activating chemiluminescers in the acceptor beads. […] Toxicity of these compounds in a HEK cell model was determined using a standard Promega Cell Titer Glo assay.
Fluorescence Polarization Assay. […] of stock compound was transferred yielding 10 μM final concentration. […] Fluorescence polarization was calculated by first subtracting background from a buffer-only control well and then using the equation

The test system of the next data set is HEK-293 cells. In words: Cell viability, Promega Cell Titer Glo.
The next data set concerns the target T2, GST-MSUT2 (Homo sapiens, UniProt Q6PJT7).
T2 construct: Targeted construct consisted of the c-terminal end (dark blue and amino acids 601-736) of MSUT2; made in house; host or cells: E. coli BL21 (DE3)
T2 sequence (Q6PJT7 601-736): T1 sequence (Q6PJT7 601-736)
In words: Alpha Screen assay of biotinylated poly(A) RNA:GST-MSUT2 binding. The conditions noted are these: by Alpha assay. The procedure: Alpha Screen Assay. Samples were set up in 384 well Perkin Elmer white opaque-bottom plates (PE06). A total reaction volume of […] was plated in 384 format using a CyBio Well Vario (6 μL of donor beads (10 μg/mL), 3 μL biotinylated RNA (250 nM), 3 μL GST-MSUT2 protein (250 nM) per well). 50 nL of compounds were transferred to wells via CyBio Vario equipped with Pin Tool. This mixture was incubated at room temperature for 30 minutes away from light. Next 3 μL of acceptor beads (1.25 μg/mL) was added. Plates were incubated at room temperature away from light for 60 minutes and subsequently read on a Perkin Elmer EnVision multimode microplate reader equipped with stackers using a standard 384-well Alpha Assay software protocol.
Results. Alpha Screen design and underlying principle. Alpha Screen technology relies on donor beads, coated with a hydrogel excitable by 680 nm, brought within close proximity to an acceptor bead leading to light emission and detection. In this assay, streptavidin coated donor beads tightly bind to biotinylated-poly(A) RNA while the glutathione-coated acceptor bead binds to GST-tagged MSUT2 protein. […] When this interaction is blocked by an inhibitor, the proximity threshold for donor and acceptor beads is not met, singlet oxygen transference cannot occur, and light is not emitted by the acceptor bead (FIG. 1a).
Identification and validation of MSUT2 inhibitory compounds from NIHCC library. The single-point primary screen was conducted in duplicate and utilized the FP assay conditions determined herein (e.g., 125 nM MSUT2 RNABP and 10 nM FAM-RNA probe) with 10 μM library compounds added in a 96-well format. […] Compound specificity was empirically tested by counter screening against PABPN1, a regulator of the length of mRNA poly(A) tails (Apponi, L. H. et al. Hum Mol Genet 19, 1058-1065, (2010); and Benoit, B. et al. Dev Cell 9, 511-522, (2005)). IC50 of each of the previous 8 compounds was determined for PABPN1 using fluorescence polarization (FIG. 11), and a specificity ratio determined (Table 3). An Alpha Screen (AS) assay was developed as an orthogonal screen. Briefly, in this screen, biotinylated RNA binds streptavidin-coated donor beads, while GST-MSUT2 ZF binds glutathione-coated acceptor beads. […] Toxicity of these compounds in a HEK cell model was determined using a standard Promega Cell Titer Glo assay.
Alpha Screen Assay. […] The plate was then incubated again at room temperature away from light for 60 minutes and subsequently read on a Perkin Elmer EnSight multimode microplate reader using a standard 96-well Alpha Assay protocol.

Description for HEK-293 cells: Cell culture and cytotoxicity screen. […] Cell viability was assessed as using Promega Cell Titer Glo (Promega G7570) per manufacturer protocol. Briefly, HEK-293 cells were grown to 70% confluence in a 96 well plate were treated with indicated concentrations of compounds and incubated for 72 hours at 37° C. Plates were read for luminescence on Perkin Elmer Enspire Alpha.
Cell viability was assessed. Briefly, HEK-293 cells grown to 70% confluence in a 96 well dish were treated with varying concentrations of compound (final concentration of 2% DMSO) and incubated for 72 hours. Next, Promega Cell Titer Glo assay was used to assess viability per manufacturer instructions (Promega G7570).

For `O=c1c2ccccc2[se]n1-c1ccccc1` [Ebselen], the results for the Ki at MSUT2 ZF and on GST-MSUT2 were 1020 nM and 1580 nM, respectively. Moreover, the “toxicity (effect on cell viability)” value in the data set with HEK-293 cells (HEK-293, 72 hours, indicated concentrations) is listed as “did not show toxicity in a dose-dependent manner”. In addition, in the data set with HEK-293 cells (HEK-293, at the tested doses, compared to DMSO control), the “reduction of cell viability” value is reported as “roughly 40%”.
